Assay results: article PMC9764288, “Computation-Aided Engineering of Cytochrome P450 for the Production of Pravastatin” (ACS Catalysis, 2022)

Key:
[1] = target: T1, P450pra + F76N (Amycolatopsis orientalis, UniProt W5VH56, F76N/I95T/Q127R/A180V/L236I/A265N); assay type: binding
T1 construct: N-terminal polyhistidine tag, expressed in E. coli
Protocol: (§1) Absorbance spectra (300–800 nm) of P450 variants were measured on a Cary 60 UV–vis spectrophotometer at 25 °C using 3–8 μM protein in buffer A. The pyridine hemochromogen method was used to quantify CYP105AS1 P450 variant heme concentrations and to determine an extinction coefficient at the heme Soret maximum for each variant.[89] For titration, compactin (0.05–0.5 μL) was added from 5 to 50 mM stock solutions in DMSO. The overall absorbance change (ΔAmax) was calculated as Apeak (absorbance maximum) minus Atrough (absorbance minimum) and plotted against the substrate concentration. Data were fitted according to a standard hyperbolic binding equation or a Morrison equation for tight-binding to determine dissociation constants (Kd).[90],[91]
(§2) UV–vis substrate binding studies were conducted to investigate the effect of mutations on compactin binding. […] Probably, the bulky aromatic side chain of the introduced Phe95 residue influenced the binding of compactin, which allowed elimination of the proximal water ligand and full conversion to the high-spin state upon binding of this substrate.

[2] = target: T2, P450pra + P80G (Amycolatopsis orientalis, UniProt W5VH56, P80G/I95T/Q127R/A180V/L236I/A265N); assay type: binding
T2 construct: N-terminal polyhistidine tag, expressed in E. coli
Protocol: as §1, §2

[3] = target: T3, P450pra + T286I (Amycolatopsis orientalis, UniProt W5VH56, I95T/Q127R/A180V/L236I/A265N/T286I); assay type: binding
T3 construct: N-terminal polyhistidine tag, expressed in E. coli
Protocol: as §1, §2

[4] = target: T4, P450pra + T95W (Amycolatopsis orientalis, UniProt W5VH56, I95W/Q127R/A180V/L236I/A265N); assay type: binding
T4 construct: N-terminal polyhistidine tag, expressed in E. coli
Protocol: as §1, §2

[5] = target: T5, P450pra (Amycolatopsis orientalis, UniProt W5VH56, I95T/Q127R/A180V/L236I/A265N); assay type: binding
T5 construct: N-terminal polyhistidine tag, expressed in E. coli; directed evolution variant
Protocol: as §1, §2

[6] = target: T6, P450pra +V180M (Amycolatopsis orientalis, UniProt W5VH56, I95T/Q127R/A180M/L236I/A265N); assay type: binding
T6 construct: N-terminal polyhistidine tag, expressed in E. coli
Protocol: as §1, §2

[7] = target: T7, P450pra +V180I (Amycolatopsis orientalis, UniProt W5VH56, I95T/Q127R/A180I/L236I/A265N); assay type: binding
T7 construct: N-terminal polyhistidine tag, expressed in E. coli
Protocol: as §1, §2

[8] = target: T8, P450pra + T95F (Amycolatopsis orientalis, UniProt W5VH56, I95F/Q127R/A180V/L236I/A265N); assay type: binding
T8 construct: N-terminal polyhistidine tag, expressed in E. coli
Protocol: as §1, §2

[9] = target: T9, P450pra + T95F/V180M (=P450pra100) (Amycolatopsis orientalis, UniProt W5VH56, I95F/Q127R/A180M/L236I/A265N); assay type: binding
T9 construct: N-terminal polyhistidine tag, expressed in E. coli
Protocol: as §1, §2

[10] = target: T10, CYP105AS1 (Amycolatopsis orientalis, UniProt W5VH56); assay: UV-vis spectral (type I Soret shift) titration of 3-8 uM purified P450 with compactin from DMSO stocks at 25 °C in 50 mM potassium phosphate, 300 mM KCl, 10% glycerol, pH 8.0; hyperbolic or Morrison tight-binding fit.
T10 construct: N-terminal polyhistidine tag, pBAD vector, expressed in E. coli Top10
T10 sequence (W5VH56 1-401): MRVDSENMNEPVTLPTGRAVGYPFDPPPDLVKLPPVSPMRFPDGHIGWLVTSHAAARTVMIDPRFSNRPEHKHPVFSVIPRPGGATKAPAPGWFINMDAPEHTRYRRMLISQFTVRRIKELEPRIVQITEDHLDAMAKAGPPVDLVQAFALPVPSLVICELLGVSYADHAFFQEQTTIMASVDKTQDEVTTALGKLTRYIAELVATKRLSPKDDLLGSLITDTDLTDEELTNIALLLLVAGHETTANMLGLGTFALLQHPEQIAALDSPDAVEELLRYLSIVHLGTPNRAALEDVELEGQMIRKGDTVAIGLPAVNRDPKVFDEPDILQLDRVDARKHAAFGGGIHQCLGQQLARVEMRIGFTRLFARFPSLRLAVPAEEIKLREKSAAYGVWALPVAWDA
Protocol: as §1, §2

[11] = tested on: CYP3A5; set-up: method as in PMID 19530969; conditions: cited from earlier work
[12] = tested on: human CYP3A4; set-up: method as in PMID 19530969; conditions: cited from earlier work

T2 sequence (W5VH56 entry or part of it P80G/I95T/Q127R/A180V/L236I/A265N): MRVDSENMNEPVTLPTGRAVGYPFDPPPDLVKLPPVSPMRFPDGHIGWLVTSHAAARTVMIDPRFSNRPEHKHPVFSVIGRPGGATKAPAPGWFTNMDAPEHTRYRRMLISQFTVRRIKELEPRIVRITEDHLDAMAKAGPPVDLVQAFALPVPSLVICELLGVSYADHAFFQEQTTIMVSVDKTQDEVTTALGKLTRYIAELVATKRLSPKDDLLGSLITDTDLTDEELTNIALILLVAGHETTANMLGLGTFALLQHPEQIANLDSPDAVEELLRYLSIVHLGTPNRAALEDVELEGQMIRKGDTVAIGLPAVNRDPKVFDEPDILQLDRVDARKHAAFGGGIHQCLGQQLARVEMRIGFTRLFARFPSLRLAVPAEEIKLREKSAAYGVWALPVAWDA
T9 sequence (W5VH56 entry or part of it I95F/Q127R/A180M/L236I/A265N): as the sequence (W5VH56 entry or part of it P80G/I95T/Q127R/A180V/L236I/A265N) above, with G80P, T95F, V180M counted along it
T3 sequence (W5VH56 entry or part of it I95T/Q127R/A180V/L236I/A265N/T286I): as the sequence (W5VH56 entry or part of it P80G/I95T/Q127R/A180V/L236I/A265N) above, with G80P, T286I counted along it
T6 sequence (W5VH56 entry or part of it I95T/Q127R/A180M/L236I/A265N): as the sequence (W5VH56 entry or part of it P80G/I95T/Q127R/A180V/L236I/A265N) above, with G80P, V180M counted along it
T8 sequence (W5VH56 entry or part of it I95F/Q127R/A180V/L236I/A265N): as the sequence (W5VH56 entry or part of it P80G/I95T/Q127R/A180V/L236I/A265N) above, with G80P, T95F counted along it
T4 sequence (W5VH56 entry or part of it I95W/Q127R/A180V/L236I/A265N): as the sequence (W5VH56 entry or part of it P80G/I95T/Q127R/A180V/L236I/A265N) above, with G80P, T95W counted along it
T5 sequence (W5VH56 entry or part of it I95T/Q127R/A180V/L236I/A265N): as the sequence (W5VH56 entry or part of it P80G/I95T/Q127R/A180V/L236I/A265N) above, with G80P counted along it
T7 sequence (W5VH56 entry or part of it I95T/Q127R/A180I/L236I/A265N): as the sequence (W5VH56 entry or part of it P80G/I95T/Q127R/A180V/L236I/A265N) above, with G80P, V180I counted along it
T1 sequence (W5VH56 entry or part of it F76N/I95T/Q127R/A180V/L236I/A265N): as the sequence (W5VH56 entry or part of it P80G/I95T/Q127R/A180V/L236I/A265N) above, with F76N, G80P counted along it

SMILES	Kd [1]	Kd [2]	Kd [3]	Kd [4]	Kd [5]	Kd [6]	Kd [7]	Kd [8]	Kd [9]	Kd [10]	metabolism by human CYP3A5 [11]	metabolism by human CYP3A4 [12]
CC[C@H](C)C(=O)O[C@H]1CCC=C2C=C[C@H](C)[C@H](CC[C@@H]3C[C@@H](O)CC(=O)O3)[C@H]21 [compactin, compactin (mevastatin)]	4.81 ± 0.25 µM	5.84 ± 0.34 µM	4.93 ± 0.25 µM	3.29 ± 0.03 µM	0.77 ± 0.07 µM	1.34 ± 0.06 µM	1.64 ± 0.13 µM	0.25 ± 0.01 µM	0.13 ± 0.03 µM	30.3 ± 5.2 µM		
CC[C@H](C)C(=O)O[C@H]1C[C@H](O)C=C2C=C[C@H](C)[C@H](CC[C@@H](O)C[C@@H](O)CC(=O)O)[C@H]21 [pravastatin]											not significantly metabolized	not significantly metabolized
